Assay results: patent publication US6713665B2, “Maize NPR1 promoter and methods of use in plant gene expression” (Pioneer Hi-Bred International, Inc., priority 1999, dated 2004)

Tested on: PR1#81::GUS
Test: Effects of defense elicitors on PR1#81::GUS expression in bombarded GS3 immature embryos
Assay type: cell-based, maize
Conditions: 1 mM salicylic acid or 0.1 mM jasmonic acid, 20-24 h; for PR1#81::GUS expression in the absence of exogenous NPR1: PR1#81::GUS alone; for PR1#81::GUS expression in the presence of exogenous NPR1: co-bombarded with Ubi::NPR1
Procedure: To evaluate the effects of defense elicitors on PR1#81::GUS expression with or without overexpression of NPR1, three experiments with a total of five replications were performed. GS3 immature embryos were bombarded with either PRI#81::GUS alone or in combination with Ubi::NPR1. Twenty-four hours after bombardment the embryos were treated with either 50 µg/ml of chitosan, 1 mM salicylic acid, or 0.1 mM jasmonic acid diluted in liquid osmotic medium. The embryos were then cultured at 28° C. for twenty to twenty-four hours before the histochemical GUS staining at 37° C. Visual observation of blue spots by histochemical GUS staining was used for interpretation of the transient assay results.

Row | Compound | PR1#81::GUS expression in the absence of exogenous NPR1 | PR1#81::GUS expression in the presence of exogenous NPR1
1 | CC/C=C\C[C@H]1C(=O)CC[C@@H]1CC(=O)O [jasmonic acid] | suppressed | suppressed
2 | O=C(O)c1ccccc1O [salicylic acid] | up regulated | up regulates
